Where “and” joins values, the source holds several entries; their conditions need not be identical. Equal values may be shown once. Read-outs that look alike come from different tables or passages of the source.
Test system: 6C3HED lymphosarcoma
Assay: animal or person
Format: in vivo
Settings: for inhibition in vivo at 18.75 mg/kg: read-out: % inhibition of tumor growth, oral, 18.75 mg/kg, BIDX 8; for inhibition in vivo at 37.5 mg/kg: read-out: % inhibition of tumor growth, oral, 37.5 mg/kg, BIDX 8; for inhibition in vivo at 75 mg/kg: read-out: % inhibition of tumor growth, oral, 75 mg/kg, BIDX 8
Protocol: The compounds were tested in C3H mice bearing a 6C3HED lymphosarcoma, also known as the Gardner lymphosarcoma (GLS), and in a variety of human tumor xenografts in CD1 nu/nu mice, including CX-1, LX-1, HXGC3, and VRC5. The 6C3HED lymphosarcoma was obtained from the Division of Cancer Treatment, National […] Institute, Tumor Bank, maintained at E. G. and G. Mason Research (Worcester, Mass.). The CX-1 human colon carcinoma and the LX-1 human lung carcinoma xenografts were obtained from the National Cancer Institute. The HXGC3 and VRC5 human colon xenografts were obtained from Dr. P. J. Houghton, St. Jude Children's Hospital in Memphis (see Br. J. Cancer, 37, 213 (1978)). First passage tumor was stored in liquid nitrogen using standard techniques. The transplanted tumor was reestablished from the Tumor Bank every six months or as needed. The tumor was maintained by serial passage twice weekly in C3H mice.
In the procedure the tumor was removed from passage animals and minced into 1- to 3-mm square fragments using sterile techniques. Tumor pieces were checked for sterility using both Antibiotic Medium 1 and Brain Heart Infusion (Difco, Detroit, Mich.). Recipient mice were shaved and tumor pieces were implanted subcutaneously in the auxiliary region by trocar. Drug therapy on the appropriate schedule was initiated on the day after tumor implant for 6C3HED and after a seven (7) day delay for xenografts (or other delay as noted in Table 2). The compound being tested was mixed with 2.5% Emulphor EL620 from GAF Corporation (1:40 dilution in saline). Food and water were provided ad libitium. The drug was administered orally in 0.5 ml of 2.5% Emulphor (unless otherwise indicated). The tumor was measured the day after treatment ended with two dimensional measurements (width and length) of the tumor taken using automated digital calipers interfaced to a microcomputer. Approximate weight for the tumor was calculated using the following formula [Worzalla, J. F., et al., Invest. New Drugs, 8, 241 (1990], (tumor weight in mg)=(width in mm)^2 ×(length in mm)/2.
At least one control group of an equal number of mice was treated with the same volume of 2.5% Emulphor only. The percent inhibition was determined by subtracting the ratio of the mean tumor size of the test group relative to the control group from one and multiplying the result times 100.
The results of several experiments in mice bearing a 6C3HED lymphosarcoma (or other tumor where indicated) when the indicated compounds were administered are provided in Table 2. In Table 2, column 1 gives the Example number of the compound used, column 2 lists the dose level in mg/kg, column 3 provides the percent inhibition of tumor growth, column 4 gives the number of mice which died relative to the total number of animals in the group, column 5 gives the method of administration of the compound, and column 6 gives the dosage schedule. The protocol used with other tumors was the same as with the 6C3HED lymphosarcoma.

[1] = Mus musculus, 6C3HED, ip, read-out: % inhibition of tumor growth, IP, 150 mg/kg, DX 8
[2] = Mus musculus, 6C3HED, ip, read-out: % inhibition of tumor growth, IP, 300 mg/kg, DX 8
[3] = Mus musculus, 6C3HED, po, read-out: % inhibition of tumor growth, oral, 150 mg/kg, DX 8
[4] = Mus musculus, 6C3HED, po, read-out: % inhibition of tumor growth, oral, 300 mg/kg, DX 8
[5] = Mus musculus, 6C3HED, po, read-out: % inhibition of tumor growth, oral, 150 mg/kg, BIDX 8
[6] = Mus musculus, 6C3HED, po, read-out: % inhibition of tumor growth, oral, 300 mg/kg, BIDX 8
[7] = Mus musculus, 6C3HED, po, read-out: % inhibition of tumor growth, oral, 25 mg/kg, DX 8
[8] = Mus musculus, 6C3HED, po, read-out: % inhibition of tumor growth, oral, 50 mg/kg, DX 8
[9] = Mus musculus, 6C3HED, po, read-out: % inhibition of tumor growth, oral, 50 mg/kg, BIDX 8

In the case of `Cc1ccc(S(=O)(=NC(=O)Nc2ccc(Cl)cc2)Nc2ccccc2)cc1` (centres unmarked) [Example 14], the “Tox/Tot (mice which died / total)” value (IP, 150 mg/kg, DX 8) is reported as 2/10, the “Tox/Tot (mice which died / total)” value (IP, 300 mg/kg, DX 8) is reported as 3/10 and the inhibition in vivo at 150 mg/kg [1] is reported as 1%. The inhibition in vivo at 300 mg/kg [2] was 38%, the inhibition in vivo at 150 mg/kg [3] was 0% and the inhibition in vivo at 300 mg/kg [4] was 5%. The “Tox/Tot (mice which died / total)” value (oral, 150 mg/kg, DX 8) was 0/10 and the “Tox/Tot (mice which died / total)” value (oral, 300 mg/kg, DX 8) was 0/10.
For `CC(=O)NS(=O)(=NC(=O)Nc1ccc(Cl)cc1)c1ccc(C)cc1` (centres unmarked) [Example 15], the “Tox/Tot (mice which died / total)” value (IP, 150 mg/kg, DX 8) was 0/10, the “% inhibition of tumor growth” value (IP, 300 mg/kg, DX 8) was “TOX” and the “Tox/Tot (mice which died / total)” value (IP, 300 mg/kg, DX 8) was 10/10. For the same compound, the inhibition in vivo at 150 mg/kg [1] was 0%, the inhibition in vivo at 150 mg/kg [5] was 0% and the inhibition in vivo at 150 mg/kg [3] was 23%. The inhibition in vivo at 300 mg/kg [6] was 84%, the inhibition in vivo at 300 mg/kg [4] was 44% and the “Tox/Tot (mice which died / total)” value (oral, 150 mg/kg, BIDX 8) was 0/10. For the same compound, the “Tox/Tot (mice which died / total)” value (oral, 150 mg/kg, DX 8) was 0/10, the “Tox/Tot (mice which died / total)” value (oral, 300 mg/kg, BIDX 8) was 0/10 and the “Tox/Tot (mice which died / total)” value (oral, 300 mg/kg, DX 8) was 0/10.
`Cc1ccc(S(=O)(=NC(=O)Nc2ccc(Cl)cc2)NCC(C)C)cc1` (centres unmarked) [Example 8] showed an inhibition in vivo at 18.75 mg/kg (Mus musculus, 6C3HED, po) of 29%, an inhibition in vivo at 25 mg/kg [7] of 28% and an inhibition in vivo at 37.5 mg/kg (Mus musculus, 6C3HED, po) of 60%. The inhibition in vivo at 50 mg/kg [8] was 31%, the inhibition in vivo at 75 mg/kg (Mus musculus, 6C3HED, po) was 85% and the inhibition in vivo at 100 mg/kg (Mus musculus, 6C3HED, po, read-out: % inhibition of tumor growth, oral, 100 mg/kg, DX 8) was 51%. The inhibition in vivo at 150 mg/kg [5] was 97%, the “Tox/Tot (mice which died / total)” value (oral, 18.75 mg/kg, BIDX 8) was 0/10 and the “Tox/Tot (mice which died / total)” value (oral, 25 mg/kg, DX 8) was 0/10. For the same compound, the “Tox/Tot (mice which died / total)” value (oral, 37.5 mg/kg, BIDX 8) was 0/10, the “Tox/Tot (mice which died / total)” value (oral, 50 mg/kg, DX 8) was 0/10 and the “Tox/Tot (mice which died / total)” value (oral, 75 mg/kg, BIDX 8) was 0/10. The “Tox/Tot (mice which died / total)” value (oral, 100 mg/kg, DX 8) was 0/10, the “% inhibition of tumor growth” value (oral, 150 mg/kg, BIDX 8) was 98% and the “% inhibition of tumor growth” value (oral, 300 mg/kg, BIDX 8) was “TOX”. For the same compound, the “Tox/Tot (mice which died / total)” value (oral, 300 mg/kg, BIDX 8) was 10/10.
With `Cc1ccc(S(=O)(=NC(=O)Nc2ccc(Cl)cc2)N(C)C)cc1` (centres unmarked) [Example 18] the “Tox/Tot (mice which died / total)” value (IP, 300 mg/kg, DX 8) was 4/8, the “Tox/Tot (mice which died / total)” value (IP, 600 mg/kg, DX 8) was 6/8 and the inhibition in vivo at 300 mg/kg [2] was 93%. For the same compound, the inhibition in vivo at 600 mg/kg (Mus musculus, 6C3HED, ip, read-out: % inhibition of tumor growth, IP, 600 mg/kg, DX 8) was 99%, the inhibition in vivo at 150 mg/kg [3] was 45% and the inhibition in vivo at 300 mg/kg [4] was 63%. The “Tox/Tot (mice which died / total)” value (oral, 150 mg/kg, DX 8) was 0/10 and the “Tox/Tot (mice which died / total)” value (oral, 300 mg/kg, DX 8) was 0/10.
`NS(=O)(=NC(=O)Nc1ccc(Cl)cc1)c1ccc(Cl)cc1` (centres unmarked) [Example 27] gave an inhibition in vivo at 25 mg/kg (Mus musculus, 6C3HED, po, read-out: % inhibition of tumor growth, oral, 25 mg/kg, BIDX 8) of 39%, an inhibition in vivo at 50 mg/kg [9] of 80% and an inhibition in vivo at 100 mg/kg (Mus musculus, 6C3HED, po, read-out: % inhibition of tumor growth, oral, 100 mg/kg, BIDX 8) of 100%. For the same compound, the “Tox/Tot (mice which died / total)” value (oral, 25 mg/kg, BIDX 8) was 0/10, the “Tox/Tot (mice which died / total)” value (oral, 50 mg/kg, BIDX 8) was 0/10 and the “% inhibition of tumor growth” value (oral, 100 mg/kg, BIDX 8) was 94%. The “% inhibition of tumor growth” value (oral, 200 mg/kg, BIDX 8) was “TOX” and the “Tox/Tot (mice which died / total)” value (oral, 200 mg/kg, BIDX 8) was 10/10.
In the case of `CCCNS(=O)(=NC(=O)Nc1ccc(Cl)cc1)c1ccc(C)cc1` (centres unmarked) [Example 5], the “Tox/Tot (mice which died / total)” value (IP, 150 mg/kg, DX 8) is reported as 0/10, the “Tox/Tot (mice which died / total)” value (IP, 300 mg/kg, DX 8) is reported as 0/10 and the inhibition in vivo at 150 mg/kg [1] is reported as 34%. It also gave an inhibition in vivo at 300 mg/kg [2] of 44%, an inhibition in vivo at 150 mg/kg [3] of 64% and an inhibition in vivo at 300 mg/kg [4] of 69%. The “Tox/Tot (mice which died / total)” value (oral, 150 mg/kg, DX 8) was 0/10 and the “Tox/Tot (mice which died / total)” value (oral, 300 mg/kg, DX 8) was 0/10.
`NS(=O)(=NC(=O)Nc1ccc(Cl)cc1)c1ccc(Br)cc1` (centres unmarked) [Example 30] showed an inhibition in vivo at 9 mg/kg (Mus musculus, 6C3HED, po, read-out: % inhibition of tumor growth, oral, 9.00 mg/kg, BIDX 8) of 4%, an inhibition in vivo at 18.75 mg/kg (Mus musculus, 6C3HED, po) of 19% and an inhibition in vivo at 37.5 mg/kg (Mus musculus, 6C3HED, po) of 42%. For the same compound, the inhibition in vivo at 50 mg/kg [9] was 55%, the inhibition in vivo at 75 mg/kg (Mus musculus, 6C3HED, po) was 67% and the inhibition in vivo at 150 mg/kg [5] was 99%. The “Tox/Tot (mice which died / total)” value (oral, 9.00 mg/kg, BIDX 8) was 0/10, the “Tox/Tot (mice which died / total)” value (oral, 18.75 mg/kg, BIDX 8) was 1/10 and the “Tox/Tot (mice which died / total)” value (oral, 37.5 mg/kg, BIDX 8) was 1/10. The “Tox/Tot (mice which died / total)” value (oral, 50 mg/kg, BIDX 8) was 0/10, the “Tox/Tot (mice which died / total)” value (oral, 75 mg/kg, BIDX 8) was 0/10 and the “% inhibition of tumor growth” value (oral, 150 mg/kg, BIDX 8) was 89%. For the same compound, the “Tox/Tot (mice which died / total)” value (oral, 150 mg/kg, BIDX 8) was 3/10 and 1/10, the “% inhibition of tumor growth” value (oral, 300 mg/kg, BIDX 8) was “TOX” and the “Tox/Tot (mice which died / total)” value (oral, 300 mg/kg, BIDX 8) was 10/10.
With `CCN=S(=O)(NC(=O)Nc1ccc(Cl)cc1)c1ccc(C)cc1` (centres unmarked) [Example 4, N-[[(4-chlorophenyl)amino]carbonyl]-N'-ethyl-4-methylbenzenesulfonimidamide] the “Tox/Tot (mice which died / total)” value (IP, 150 mg/kg, DX 8) was 0/10, the “Tox/Tot (mice which died / total)” value (IP, 300 mg/kg, DX 8) was 0/10 and the inhibition in vivo at 150 mg/kg [1] was 10%. For the same compound, the inhibition in vivo at 300 mg/kg [2] was 18%, the inhibition in vivo at 150 mg/kg [5] was 87% and the inhibition in vivo at 300 mg/kg [6] was 96%. For the same compound, the “Tox/Tot (mice which died / total)” value (oral, 150 mg/kg, BIDX 8) was 0/10 and the “Tox/Tot (mice which died / total)” value (oral, 300 mg/kg, BIDX 8) was 0/10.
In the case of `CC(=O)N(C)S(=O)(=NC(=O)Nc1ccc(Cl)cc1)c1ccc(C)cc1` (centres unmarked) [Example 16, N-[[(4-chlorophenyl)amino]carbonyl]-N'-acetyl-N'-methyl-4-methylbenzenesulfonimidamide], the inhibition in vivo at 150 mg/kg [5] is reported as 98%, the inhibition in vivo at 300 mg/kg [6] is reported as 99% and the “Tox/Tot (mice which died / total)” value (oral, 150 mg/kg, BIDX 8) is reported as 1/10. The “Tox/Tot (mice which died / total)” value (oral, 300 mg/kg, BIDX 8) was 1/10.
`N=S(=O)(NC(=O)Nc1ccc(Cl)cc1)c1ccc(C=O)cc1` (centres unmarked) [Example 51, N-[[(4-chlorophenyl)amino]carbonyl]-4-formylbenzenesulfonimidamide] was tested, and the “Tox/Tot (mice which died / total)” value (IP, 150 mg/kg, DX 8) was 0/10, the “Tox/Tot (mice which died / total)” value (IP, 300 mg/kg, DX 8) was 9/10 and the inhibition in vivo at 150 mg/kg [1] was 80%. The inhibition in vivo at 300 mg/kg [2] was 99%.
`CNS(=O)(=NC(=O)Nc1ccc(Cl)cc1)c1ccc(C)c(C)c1` (centres unmarked) [Example 62] was tested, and the inhibition in vivo at 25 mg/kg [7] was 98%, the inhibition in vivo at 50 mg/kg [8] was 99% and the “Tox/Tot (mice which died / total)” value (oral, 25 mg/kg, DX 8) was 0/10. The “Tox/Tot (mice which died / total)” value (oral, 50 mg/kg, DX 8) was 2/10.

From patent publication US5258406A, “Sulfonimidamides” (priority 1992, dated 1993)
